Results reported in article PMC9939733 (The Journal of Biological Chemistry, 2023).

Key:
R132H IDH1 [1] = target: T1, R132H IDH1 (Homo sapiens, UniProt O75874, R132H); test: CPMG 1H NMR binding study; design: made in house; host or cells: Escherichia coli BL21(DE3) pLyS; details: 50 µM ligand, R132H IDH1 titrated, 10 mM CaCl2, pH 7.5
Protocol: Binding studies were performed at 298K in buffer (50 mM Tris-d11, pH 7.5, 10%v/v D2O, 10 mM CaCl2) using CPMG NMR spectroscopy ([56]) and a water suppression pulse sequence.
similar manner as does 2OG. 1H NMR (CPMG-edited (2), 700 MHz) binding studies of R132H IDH1 with (a)
2OG/2OG derivative. […] Red spectra: 50 µM
Assays were performed as described in the Experimental
Procedures Section by titrating a concentrated R132H IDH1 stock solution (1.4 mM) into a mixture containing
(1 picture or pasted object on this page, not shown here)

R132C/S280F IDH1 = target: T2, R132C/S280F IDH1 (Homo sapiens, UniProt O75874, R132C/S280F); test: Steady-state kinetics, NADPH turnover assay; type: biochemical
T2 construct: made in house
Protocol: independent runs, each composed of technical duplicates (n = 2; mean ± SD); c) R132C/S280F IDH1 assays
monitoring NADPH turnover were performed as reported (3). […]

R132H IDH1 [2] = target: T1, R132H IDH1; test: Absorbance assay, variant activity in the presence of equimolar 2OG (inhibition screen); type: biochemical; design: made in house; host or cells: Escherichia coli BL21(DE3) pLyS; details: […] 2OG and […] test compound, 0.03 μM R132H IDH1, 50 μM NADPH
In short: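 Starting each reaction by automated reagent dispensing after simultaneous compound pipetting, the work used quadruplicate technical replicates.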

T1 sequence (O75874 whole entry R132H): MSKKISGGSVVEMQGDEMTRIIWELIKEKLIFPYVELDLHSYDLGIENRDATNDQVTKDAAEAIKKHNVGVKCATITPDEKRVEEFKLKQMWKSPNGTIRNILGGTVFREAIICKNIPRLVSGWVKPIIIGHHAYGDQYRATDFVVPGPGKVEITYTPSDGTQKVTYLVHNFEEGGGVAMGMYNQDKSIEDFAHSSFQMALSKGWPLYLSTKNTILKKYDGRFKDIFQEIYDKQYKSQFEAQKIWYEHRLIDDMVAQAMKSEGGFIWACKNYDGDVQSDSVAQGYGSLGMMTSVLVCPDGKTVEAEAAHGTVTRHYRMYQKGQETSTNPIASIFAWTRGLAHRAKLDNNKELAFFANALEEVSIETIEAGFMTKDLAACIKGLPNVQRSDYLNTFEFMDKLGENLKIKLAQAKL
T2 sequence (O75874 whole entry R132C/S280F): as the sequence (O75874 whole entry R132H) above, with H132C, S280F counted along it

## O=C(O)CCC(=O)C(=O)O [2OG, 2-oxoglutarate, reference compound]
R132H IDH1 [1]
  signal depletion (CPMG 1H NMR): ~80%
R132C/S280F IDH1
  Kmapp: 0.04 ± 0.01 mM
R132H IDH1 [2]
  activity [%] (%-substrate conversion after 20 min incubation): 100%
